Results published in ChEMBL document CHEMBL1201862, “PubChem BioAssay data set” (2004).
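Values below derive from 48-hour exposures of cells grown in 96-well plates, with endpoints linearly interpolated between the two concentrations bracketing the appropriate inhibition level. GI50 = concentration required for 50% inhibition of growth.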 Calls of active or inactive are those of the source. Cut-off read from the data, not from the text of the source: active = GI50 up to about 1.1 µM and inactive = higher.

How the values were obtained:
Test in all cases: growth of human tumour cells (NCI), 48 h
IGROV-1 = tested on: IGROV-1
HCT-15 = tested on: HCT-15
OVCAR-3 = tested on: OVCAR-3
SF-295 = tested on: SF-295
K562 = tested on: K562
SK-OV-3 = tested on: SK-OV-3
COLO 205 = tested on: COLO 205
SK-MEL-28 = tested on: SK-MEL-28
A549 = tested on: A549
MDA-N = tested on: MDA-N
A498 = tested on: A498
RPMI-8226 = tested on: RPMI-8226
SF-539 = tested on: SF-539
HL-60 = tested on: HL-60
SK-MEL-2 = tested on: SK-MEL-2
NCI-H460 = tested on: NCI-H460
BT-549 = tested on: BT-549
HT-29 = tested on: HT-29
NCI-H23 = tested on: NCI-H23
HOP-62 = tested on: HOP-62
MCF7 = tested on: MCF7
MDA-MB-231 = tested on: MDA-MB-231
NCI-H226 = tested on: NCI-H226
UACC-62 = tested on: UACC-62
KM12 = tested on: KM12
786-0 = tested on: 786-0
ACHN = tested on: ACHN
RXF 393 = tested on: RXF 393
SR = tested on: SR
SN12C = tested on: SN12C
OVCAR-8 = tested on: OVCAR-8
UO-31 = tested on: UO-31
T47D = tested on: T47D
NCI/ADR-RES = tested on: NCI/ADR-RES
HCT-116 = tested on: HCT-116
SK-MEL-5 = tested on: SK-MEL-5
TK-10 = tested on: TK-10
SW-620 = tested on: SW-620
U-251 = tested on: U-251
OVCAR-4 = tested on: OVCAR-4
OVCAR-5 = tested on: OVCAR-5
M14 = tested on: M14
MOLT-4 = tested on: MOLT-4
SF-268 = tested on: SF-268
UACC-257 = tested on: UACC-257
SNB-75 = tested on: SNB-75
Hs-578T = tested on: Hs-578T
DU-145 = tested on: DU-145
CAKI-1 = tested on: CAKI-1
HOP-92 = tested on: HOP-92
MDA-MB-435 = tested on: MDA-MB-435
EKVX = tested on: EKVX
CCRF-CEM = tested on: CCRF-CEM
NCI-H522 = tested on: NCI-H522
LOX IMVI = tested on: LOX IMVI
Malme-3M = tested on: Malme-3M
PC-3 = tested on: PC-3

## COc1cccc(/C=C/c2cnc3ccccc3n2)c1OC
IGROV-1
  GI50: 39.1 µM (inactive)
HCT-15
  GI50: 27.5 µM
OVCAR-3
  GI50: 37.2 µM (inactive)
SF-295
  GI50: 46.1 µM (inactive)
K562
  GI50: 71 µM (inactive)
SK-OV-3
  GI50: 71.6 µM (inactive)
COLO 205
  GI50: 48.3 µM (inactive)
SK-MEL-28
  GI50: 44.2 µM (inactive)
A549
  GI50: 40.7 µM (inactive)
MDA-N
  GI50: 61.1 µM (inactive)
A498
  GI50: 40.4 µM (inactive)
RPMI-8226
  GI50: 41.8 µM (inactive)
SF-539
  GI50: 45.7 µM (inactive)
HL-60
  GI50: 34.4 µM (inactive)
SK-MEL-2
  GI50: 28.8 µM (inactive)
NCI-H460
  GI50: 24.8 µM (inactive)
BT-549
  GI50: 17.4 µM (inactive)
HT-29
  GI50: 26.4 µM (inactive)
NCI-H23
  GI50: 31.9 µM (inactive)
HOP-62
  GI50: 24.7 µM (inactive)
MCF7
  GI50: 25.9 µM (inactive)
MDA-MB-231
  GI50: 22 µM (inactive)
NCI-H226
  GI50: 37.2 µM (inactive)
UACC-62
  GI50: 28.4 µM (inactive)
KM12
  GI50: 30.8 µM (inactive)
786-0
  GI50: 39.1 µM (inactive)
ACHN
  GI50: 50.1 µM (inactive)
RXF 393
  GI50: 21.8 µM (inactive)
SR
  GI50: > 100 µM (inactive)
SN12C
  GI50: 39.5 µM (inactive)
OVCAR-8
  GI50: 29.7 µM (inactive)
UO-31
  GI50: 34.1 µM (inactive)
T47D
  GI50: 23.2 µM (inactive)
NCI/ADR-RES
  GI50: 18.5 µM (inactive)
HCT-116
  GI50: 30.1 µM (inactive)
SK-MEL-5
  GI50: 17.1 µM (inactive)
TK-10
  GI50: 50.5 µM (inactive)
SW-620
  GI50: 52.1 µM (inactive)
U-251
  GI50: 39.3 µM (inactive)
OVCAR-4
  GI50: 25.6 µM (inactive)
OVCAR-5
  GI50: 72.6 µM (inactive)
M14
  GI50: 46.2 µM (inactive)
MOLT-4
  GI50: 12.9 µM (inactive)
SF-268
  GI50: 31.3 µM (inactive)
UACC-257
  GI50: 37.4 µM (inactive)
SNB-75
  GI50: 13.4 µM (inactive)
Hs-578T
  GI50: 19.1 µM (inactive)
DU-145
  GI50: 60.7 µM (inactive)
CAKI-1
  GI50: 45.2 µM (inactive)
HOP-92
  GI50: 23.7 µM (inactive)
MDA-MB-435
  GI50: 32 µM (inactive)
EKVX
  GI50: 33 µM (inactive)
CCRF-CEM
  GI50: 35.6 µM (inactive)
NCI-H522
  GI50: 17 µM (inactive)
LOX IMVI
  GI50: 36.6 µM (inactive)
Malme-3M
  GI50: 34.5 µM (inactive)
PC-3
  GI50: 25.1 µM (inactive)

## CCCC(=O)OCC1OC(n2cc(F)c(=O)[nH]c2=O)C(F)C1OC(=O)CCC (centres undefined)
IGROV-1
  GI50: 58.6 µM (inactive)
HCT-15
  GI50: > 100 µM
OVCAR-3
  GI50: 41.5 µM (inactive)
SF-295
  GI50: 49.2 µM (inactive)
K562
  GI50: 56.1 µM (inactive)
SK-OV-3
  GI50: > 100 µM (inactive)
COLO 205
  GI50: 36.4 µM (inactive)
SK-MEL-28
  GI50: > 100 µM (inactive)
A549
  GI50: 10.1 µM (inactive)
MDA-N
  GI50: > 100 µM (inactive)
A498
  GI50: 6.38 µM (inactive)
RPMI-8226
  GI50: 9.31 µM (inactive)
SF-539
  GI50: 1.63 µM (inactive)
HL-60
  GI50: > 100 µM (inactive)
SK-MEL-2
  GI50: > 100 µM (inactive)
NCI-H460
  GI50: 3.78 µM (inactive)
BT-549
  GI50: 13.9 µM (inactive)
HT-29
  GI50: 45.4 µM (inactive)
NCI-H23
  GI50: 35.7 µM (inactive)
HOP-62
  GI50: 4.11 µM (inactive)
MCF7
  GI50: 0.6 µM (active)
MDA-MB-231
  GI50: > 100 µM (inactive)
NCI-H226
  GI50: > 100 µM (inactive)
UACC-62
  GI50: 25.9 µM (inactive)
KM12
  GI50: > 100 µM (inactive)
786-0
  GI50: 18.2 µM (inactive)
ACHN
  GI50: 25.6 µM (inactive)
RXF 393
  GI50: 54.7 µM (inactive)
SR
  GI50: 9.73 µM (inactive)
SN12C
  GI50: 19.2 µM (inactive)
OVCAR-8
  GI50: 19.6 µM (inactive)
UO-31
  GI50: 69.7 µM (inactive)
T47D
  GI50: > 100 µM (inactive)
NCI/ADR-RES
  GI50: 7.48 µM (inactive)
HCT-116
  GI50: 21.5 µM (inactive)
SK-MEL-5
  GI50: 36.8 µM (inactive)
TK-10
  GI50: 49.3 µM (inactive)
SW-620
  GI50: 53.6 µM (inactive)
U-251
  GI50: 10.9 µM (inactive)
OVCAR-4
  GI50: 5.61 µM (inactive)
OVCAR-5
  GI50: 96.6 µM (inactive)
M14
  GI50: 36.3 µM (inactive)
MOLT-4
  GI50: > 100 µM (inactive)
SF-268
  GI50: 8.53 µM (inactive)
UACC-257
  GI50: 85.7 µM (inactive)
SNB-75
  GI50: 43.5 µM (inactive)
Hs-578T
  GI50: 26.5 µM (inactive)
DU-145
  GI50: 15.3 µM (inactive)
CAKI-1
  GI50: 23.1 µM (inactive)
HOP-92
  GI50: 17.4 µM (inactive)
MDA-MB-435
  GI50: 51.5 µM (inactive)
EKVX
  GI50: 50 µM (inactive)
CCRF-CEM
  GI50: 7.64 µM (inactive)
NCI-H522
  GI50: > 100 µM (inactive)
LOX IMVI
  GI50: 47.8 µM (inactive)
Malme-3M
  GI50: 36.6 µM (inactive)
PC-3
  GI50: > 100 µM (inactive)
